One experiment relates to N85D_G54C 2D12.5 mutant. The experiment in a line: permanent binding of metal-AABD and metal-NBD complexes, Western blot (Example 10). The conditions noted are these: metal-NBD complexes. The protocol: The native antibody 2D12.5 binds all rare earth DOTA complexes with high affinity (Corneillie et al., J. Am. Chem. Soc. 125:3436-37, 2003) and other metals with affinities that are weaker. […] Therefore, this mutant was selected for the present example.
Metallation of Chelates with stable metal cations. Metals tested in this experiment included Y, La, Lu, Sr and Sc. Stock chelate concentrations were measured using a Co-57 metal binding assay (Meares et al., Anal. Biochem. 142:68-78, 1984). Stock metal solutions (approximately 0.2 M) were prepared by dissolving the appropriate gravimetrically measured rare earth chloride salt in 0.05 M HCl. As an example, YCl3 (2.5 equivalents) was added to 25 μL of NBD ([…]) dissolved in 0.1 M tetramethylammonium acetate, and the pH was adjusted to 5 by the addition of triethylamine. The metallation was allowed to proceed overnight at 50° C. Samples were promptly frozen at −70° C., and metallation efficiency was assessed using a competitive metal-binding assay with Co-57^3. Excess metal was scavenged with DTPA, which has very low affinity for the antibody (<<1%).
Metal-AABD and metal-NBD complexes were incubated with 2D12.5 Fab mutant N85D_G54C and samples denatured, reduced and separated by SDS-PAGE, as described for Y-90 in the previous examples. […]
Background: In western blotting, separated proteins are transferred to a membrane and probed.

The next experiment concerns antibody 2D12.5. The experiment in a line: competitive immunoassay (ELISA) of metal-DOTA complexes relative to Y-DOTA. Type of experiment: binding, murine. To be noted: for relative binding of Y-DOTA molecules with different sidechain locations (FIG. 17): Y complexes; for binding compared with the original Y^3+ complex / other rare earths: DOTA complexes, 37° C. The text has this: FIG. 13 is graphical display showing the relative binding of metal-DOTA complexes to antibody 2D 12.5. A representative set of competitive binding curves obtained from ELISA experiments described in Example 3 below. Error bars (representing the standard error of the mean) are shown, but are generally smaller than the data points.
To determine the metal selectivity of the antibody 2D12.5, a competitive immunoassays was used to measure the binding constants of multiple metal-DOTA complexes relative to Y^3+-DOTA.
We examined the monoclonal antibody 2D12.5, initially developed to bind specifically to Y-DOTA for targeted radiotherapy (see, e.g., Goodwin et al., Cancer Res. 54: 5937-5946 (1994)), in order to determine the scope of its activity. To assess the metal selectivity of antibody 2D12.5, a competitive immunoassay to measure the binding constants of various metal-DOTA complexes relative to the original Y^3+ complex was developed (FIG. 12). Briefly, 2D12.5 was incubated at 37° C. in the presence of immobilized Y-DOTA and a soluble metal-DOTA competitor. The metal-DOTA concentration was varied from μM to pM in order to determine the relative binding affinity of 2D12.5 for each metal chelate in comparison to Y-DOTA. Binding was measured by standard methods known to those of skill in the art. The DOTA analog used to evaluate binding was [S]-2-(p-nitrobenzyl)-DOTA, which is similar to the original antigen.
On the technique in general: In an ELISA, binding on a coated surface is turned into a signal by an enzyme label.

The next experiment relates to 2D12.5. The experiment in a line: relative binding affinities of metal NBD/AABD complexes and DTPA to 2D12.5. More on the design: species or system murine. The protocol:
FIG. 18 is a graphical display showing the relative binding affinities of the NBD complexes of various metal ions relative to Y-NBD.
Relative binding affinities of NBD complexes of various metals ions relative to Y-NBD were determined by methods known in the art and described herein and shown in FIG. 18.

Entries after “also recorded” stand apart in the source; their conditions may differ.

For `O=C(O)CN1CCN(CC(=O)O)CCN(CC(=O)O)[C@@H](Cc2ccc([N+](=O)[O-])cc2)CN(CC(=O)O)CC1` [NBD], the “permanent bond with N85D_G54C 2D12.5, non-electrophilic negative control” value with N85D_G54C 2D12.5 mutant was “negative”.

As for `O=C(O)CN1CCN(CC(=O)O)CCN(CC(=O)O)[C@H](Cc2ccc([N+](=O)[O-])cc2)CN(CC(=O)O)CC1` (single isomer, unassigned) [(R)-isomer of 2-(4-nitrobenzyl)-DOTA], the “decrease of affinity as compared to the (S), Λ isomer” value with antibody 2D12.5 (coordinated metal Y^3+ (FIG. 16)) was “less than an order of magnitude”.

`O=C(O)CN(CCN(CC(=O)O)CC(=O)O)CCN(CC(=O)O)CC(=O)O` [DTPA]: in the experiment with 2D12.5, the “affinity for the antibody” value is given as below 1%.

For the molecule “(5-Amino-2-methoxy-phenyl)-carboxymethyl)-DOTA”, the “relative binding of Y-DOTA molecules with different sidechain locations (FIG. 17)” value in the experiment with antibody 2D12.5 is on record as “decrease in the binding affinity”.

For `O=C(O)CN1CCN(CC(=O)O)CCN(CC(=O)O)[C@@H](Cc2ccc([N+](=O)[O-])cc2)CN(CC(=O)O)CC1` [Y-NBD, (S)-2-(4-nitrobenzyl)-DOTA], in the experiment with antibody 2D12.5, the “relative binding of Y-DOTA molecules with different sidechain locations (FIG. 17)” value was “clearly stronger”. Moreover, in the experiment with antibody 2D12.5 (coordinated metal Y^3+), the “relative binding of Y-DOTA isomers (FIG. 16)” value is “preferred isomer for binding”. Moreover, the “binding rank of NBD complexes among the rare earths” value with 2D12.5 is reported as “one of the strongest binders”.

Regarding `O=C([O-])CN1CCN(CC(=O)[O-])CCN(CC(=O)O)CCN(CC(=O)[O-])CC1.[Gd+3]` [Gd-DOTA], the “binding compared with the original Y^3+ complex / other rare earths” value in the experiment with antibody 2D12.5 is “bind more tightly; also recorded: strongest binders”.

For the molecule `O=C([O-])CN1CCN(CC(=O)[O-])CCN(CC(=O)[O-])CCN(CC(=O)[O-])CC1.[Eu+3]` [Eu-DOTA], the “binding compared with the original Y^3+ complex / other rare earths” value with antibody 2D12.5 is “strongest binders”.

The record behind these values is patent US20050026263A1, “Multi-functional antibodies” (THE REGENTS OF THE UNIVERSITY OF CALIFORNIA, priority 2003, published 2005).
